Measured values reported in patent US20250101041A1, “POSITIVE ALLOSTERIC MODULATORS OF THE MUSCARINIC ACETYLCHOLINE RECEPTOR M4” (Vanderbilt University, priority 2022, published 2025).

Target: T1, human mAChR M4 (Homo sapiens, UniProt P08173)
T1 construct: expressed in transfected cells; host or cells: CHO-K1 (American Type Culture Collection), stably expressing hM4 and Gqi5
T1 sequence (P08173 1-479): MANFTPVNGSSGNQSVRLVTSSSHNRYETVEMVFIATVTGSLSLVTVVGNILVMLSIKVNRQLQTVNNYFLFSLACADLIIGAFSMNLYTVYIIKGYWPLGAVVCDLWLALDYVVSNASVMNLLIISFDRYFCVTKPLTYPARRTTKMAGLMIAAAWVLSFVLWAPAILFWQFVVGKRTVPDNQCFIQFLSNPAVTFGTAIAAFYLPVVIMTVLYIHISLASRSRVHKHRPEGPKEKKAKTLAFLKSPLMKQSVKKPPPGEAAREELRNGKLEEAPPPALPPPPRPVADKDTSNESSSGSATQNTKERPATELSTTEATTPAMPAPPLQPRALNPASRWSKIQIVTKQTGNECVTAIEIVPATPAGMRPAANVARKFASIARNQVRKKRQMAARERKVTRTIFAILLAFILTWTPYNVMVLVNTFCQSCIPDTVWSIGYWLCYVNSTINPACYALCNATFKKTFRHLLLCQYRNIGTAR
Experiment: mAChR M4 cell-based functional assay: calcium mobilization (Fluo-4, FDSS), potentiation of EC20 acetylcholine response in hM4-Gqi5 CHO-K1 cells
Conditions: human M4; for Emax at 30 µM: CHO-K1, % ACh maximum at 30 μM; for EC50: potentiation of EC20 acetylcholine response, calcium mobilization
Outline: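 Readout is the fluorescence-ratio rise at 1 Hz on FDSS, with PAM activity taken as concentration-dependent enhancement of the EC20 acetylcholine response, fitted four-parameter for EC50/Emax. hM4-Gqi5 CHO-K1 cells carried Fluo-4 AM dye; test compounds (11 points, 1:3) preceded EC20 acetylcholine additions at 144 s and 230 s.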

Emax at 30 µM [%] | EC50 [nM] | SMILES
84 | 124 | Cc1cc(-c2cnc3c(c2)CN(c2nn4c(=O)cc(C)nc4c(C)c2C)CC3)ccn1 [Compound 1-243, 2,8,9-trimethyl-7-(3-(2-methylpyridin-4-yl)-7,8-dihydro-1,6-naphthyridin-6(5H)-yl)-4H-pyrimido[1,2-b] pyridazin-4-one]
82 | 112 | Cc1cc(=O)n2nc(N3CCc4ncc(-c5ccncc5)cc4C3)c(C)c(C)c2n1 [Compound 1-244, 2,8,9-trimethyl-7-(3-(pyridin-4-yl)-7,8-dihydro-1,6-naphthyridin-6(5H)-yl)-4H-pyrimido[1,2-b]pyridazin-4-one]
87 | 72 | Cc1cc(=O)n2nc(N3CCc4ncc(-c5ccncc5C)cc4C3)c(C)c(C)c2n1 [Compound 1-245, 2,8,9-trimethyl-7-(3-(3-methylpyridin-4-yl)-7,8-dihydro-1,6-naphthyridin-6(5H)-yl)-4H-pyrimido[1,2-b] pyridazin-4-one]
80 | 1020 | Cc1cc(=O)n2nc(N3CCc4ncc(-c5cc(F)nc(F)c5)cc4C3)c(C)c(C)c2n1 [Compound 1-246, 7-(3-(2,6-difluoropyridin-4-yl)-7,8-dihydro-1,6-naphthyridin-6(5H)-yl)-2,8,9-trimethyl-4H-pyrimido[1,2-b]pyridazin-4-one]
55 | 1030 | Cc1cc(=O)n2nc(N3CCc4ncc(-c5ccccc5C(C)C)cc4C3)c(C)c(C)c2n1 [Compound 1-247, 7-(3-(2-isopropylphenyl)-7,8-dihydro-1,6-naphthyridin-6(5H)-yl)-2,8,9-trimethyl-4H-pyrimido[1,2-b]pyridazin-4-one]
80 | 852 | Cc1cc(=O)n2nc(N3CCc4ncc(-c5ccccc5C5CC5)cc4C3)c(C)c(C)c2n1 [Compound 1-248, 7-(3-(2-cyclopropylphenyl)-7,8-dihydro-1,6-naphthyridin-6(5H)-yl)-2,8,9-trimethyl-4H-pyrimido[1,2-b]pyridazin-4-one]
87 | 1000 | CCc1ccccc1-c1cnc2c(c1)CN(c1nn3c(=O)cc(C)nc3c(C)c1C)CC2 [Compound 1-249, 7-(3-(2-ethylphenyl)-7,8-dihydro-1,6-naphthyridin-6(5H)-yl)-2,8,9-trimethyl-4H-pyrimido[1,2-b]pyridazin-4-one]
79 | 1010 | COc1ccccc1-c1cnc2c(c1)CN(c1nn3c(=O)cc(C)nc3c(C)c1C)CC2 [Compound 1-250, 7-(3-(2-methoxyphenyl)-7,8-dihydro-1,6-naphthyridin-6(5H)-yl)-2,8,9-trimethyl-4H-pyrimido[1,2-b]pyridazin-4-one]
84 | 289 | Cc1cc(=O)n2nc(N3CCc4ncc(-c5ccccc5F)cc4C3)c(C)c(C)c2n1 [Compound 1-251, 7-(3-(2-fluorophenyl)-7,8-dihydro-1,6-naphthyridin-6(5H)-yl)-2,8,9-trimethyl-4H-pyrimido[1,2-b]pyridazin-4-one]
70 | 631 | Cc1cc(F)c(F)c(-c2cnc3c(c2)CN(c2nn4c(=O)cc(C)nc4cc2C)CC3)c1 [Compound 1-252, 7-(3-(2,3-difluoro-5-methylphenyl)-7,8-dihydro-1,6-naphthyridin-6(5H)-yl)-2,8-dimethyl-4H-pyrimido[1,2-b]pyridazin-4-one]
54 | 2330 | Cc1cc(=O)n2nc(N3CCc4ncc(-c5cc(F)cc(F)c5F)cc4C3)c(C)cc2n1 [Compound 1-253, 2,8-dimethyl-7-(3-(2,3,5-trifluorophenyl)-7,8-dihydro-1,6-naphthyridin-6(5H)-yl)-4H-pyrimido[1,2-b] pyridazin-4-one]
48 | 1370 | Cc1cc(=O)n2nc(N3CCc4ncc(-c5ccccc5OC(F)(F)F)cc4C3)c(C)cc2n1 [Compound 1-254, 2,8-dimethyl-7-(3-(2-(trifluoromethoxy)phenyl)-7,8-dihydro-1,6-naphthyridin-6(5H)-yl)-4H-pyrimido[1,2-b]pyridazin-4-one]

Second part, the molecule before the results:

SMILES | Emax at 30 µM [%] | EC50 [nM]
COc1ccccc1-c1cnc2c(c1)CN(c1nn3c(=O)cc(C)nc3cc1C)CC2 [Compound 1-233, 7-(3-(2-methoxyphenyl)-7,8-dihydro-1,6-naphthyridin-6(5H)-yl)-2,8-dimethyl-4H-pyrimido[1,2-b]pyridazin-4-one] | 65 | 735
Cc1cc(=O)n2nc(N3CCc4ncc(-c5ccccc5F)cc4C3)c(C)cc2n1 [Compound 1-234, 7-(3-(2-fluorophenyl)-7,8-dihydro-1,6-naphthyridin-6(5H)-yl)-2,8-dimethyl-4H-pyrimido[1,2-b]pyridazin-4-one] | 71 | 235
Cc1cc(=O)n2nc(N3CCc4ncc(-c5ccccc5O)cc4C3)c(C)cc2n1 [Compound 1-235, 7-(3-(2-hydroxyphenyl)-7,8-dihydro-1,6-naphthyridin-6(5H)-yl)-2,8-dimethyl-4H-pyrimido[1,2-b]pyridazin-4-one] | 62 | 568
Cc1cc(=O)n2nc(N3CCc4ncc(-c5cc(F)ccc5F)cc4C3)c(C)cc2n1 [Compound 1-236, 7-(3-(2,5-difluorophenyl)-7,8-dihydro-1,6-naphthyridin-6(5H)-yl)-2,8-dimethyl-4H-pyrimido[1,2-b]pyridazin-4-one] | 87 | 1600
Cc1cc(=O)n2nc(N3CCc4ncc(-c5ccccc5C)cc4C3)c(C)cc2n1 [Compound 1-237, 2,8-dimethyl-7-(3-(o-tolyl)-7,8-dihydro-1,6-naphthyridin-6(5H)-yl)-4H-pyrimido[1,2-b] pyridazin-4-one] | 100 | 365
Cc1cc(=O)n2nc(N3CCc4ncc(-c5cc(F)ncc5C)cc4C3)c(C)cc2n1 [Compound 1-238, 7-(3-(2-fluoro-5-methylpyridin-4-yl)-7,8-dihydro-1,6-naphthyridin-6(5H)-yl)-2,8-dimethyl-4H-pyrimido[1,2-b]pyridazin-4-one] | 92 | 711
Cc1cc(-c2cnc3c(c2)CN(c2nn4c(=O)cc(C)nc4cc2C)CC3)ccn1 [Compound 1-239, 2,8-dimethyl-7-(3-(2-methylpyridin-4-yl)-7,8-dihydro-1,6-naphthyridin-6(5H)-yl)-4H-pyrimido[1,2-b] pyridazin-4-one] | 78 | 98
Cc1cc(=O)n2nc(N3CCc4ncc(-c5ccncc5)cc4C3)c(C)cc2n1 [Compound 1-240, 2,8-dimethyl-7-(3-(pyridin-4-yl)-7,8-dihydro-1,6-naphthyridin-6(5H)-yl)-4H-pyrimido[1,2-b]pyridazin-4-one] | 86 | 284
Cc1cc(=O)n2nc(N3CCc4ncc(-c5ccncc5C)cc4C3)c(C)cc2n1 [Compound 1-241, 2,8-dimethyl-7-(3-(3-methylpyridin-4-yl)-7,8-dihydro-1,6-naphthyridin-6(5H)-yl)-4H-pyrimido[1,2-b] pyridazin-4-one] | 87 | 228
Cc1cc(=O)n2nc(N3CCc4ncc(-c5cc(F)nc(F)c5)cc4C3)c(C)cc2n1 [Compound 1-242, 7-(3-(2,6-difluoropyridin-4-yl)-7,8-dihydro-1,6-naphthyridin-6(5H)-yl)-2,8-dimethyl-4H-pyrimido[1,2-b]pyridazin-4-one] | 79 | 612
